Tests used:
HIV = settings: cited from earlier work
[1] = tested on: human vascular smooth muscle cell (VSMC); settings: cited from earlier work
cardiac hypertrophy = assay: HMBA infusion in patients having or susceptible to cardiac hypertrophy; type: in vivo; settings: 24 g/m^2/d in 10-day courses
Experimental: Genetic testing, and/or ECG and echocardiography are used to diagnose patients susceptible to hypertrophic cardiomyopathy using methods described by Charron et al. (1997 & 2003). For genetic testing, candidate patients are from families involved in genetic studies in whom genetic analyses are performed and the causative mutation identified. Patients are identified as being at risk of inheriting the disease gene, i.e., they have a first-degree relative clinically affected by hypertrophic cardiomyopathy. The major diagnostic criteria for echocardiography are a left ventricular wall thickness >13 mm and, for ECG, abnormal Q waves, left ventricular hypertrophy, and marked ST-T changes. Clinical evaluation is performed, and blood samples are obtained. Using methods adapted from Andreeff et al. (1992), patients diagnosed as having or susceptible to cardiac hypertrophy are given HMBA treatment. A 5% solution of HMBA (NSC-95580) in distilled water is provided in 500-ml infusion bottles (25 g total per bottle). HMBA is administered at a dose of 24 g/m^2/d in 10-day courses, followed by an 18- to 75-day observation period. Plasma levels are determined daily (at 24 hours into the infusion). […] HMBA plasma levels are determined using HPLC.

[2] = tested on: right ventricular myocytes; assay: myocardial infarction model, HMBA by osmotic minipump; ventricular myocyte hypertrophy and action potential; type: in vivo, male Wistar rats
Text: In a method adapted from Perrier et al. (2004), myocardial infarction (MI) is induced in 250 to 280 g male Wistar rats by left coronary artery ligation. Only post-MI hearts that show a transmural scar are used. An osmotic minipump (Alzet 2ML4) is implanted subcutaneously at the time of surgery to deliver varying amounts of HMBA or other HPC. Control animals receive carrier solution only. Cellular responses are examined over time using whole-cell, patch-clamp techniques on right ventricular myocytes. Animals are euthanized 1 and 3 weeks after surgery with intraperitoneal injection of sodium pentobarbital. Ventricular myocytes are isolated enzymatically. Cellular hypertrophy is monitored by 2-photon microscopy (Zeiss LSM 510 NLO) to calculate cell volume and the whole-cell patch-clamp technique is used to measure membrane capacitance, an electrical index of membrane surface area. To measure cell volume, the voltage-sensitive dye 1-(3-sulfonatopropyl)-[…][b-[2-(di-n-butylamino)-6-naphthyl]vinyl]pyridium betaine (di-4-ANEPPS)-loaded cells are illuminated at 840 nm with a mode-locked Ti:sapphire laser (Mira 900, Coherent) and recorded in 3D. Images of spherical beads (Molecular Probes) are recorded under the same conditions to calculate the point spread function. Deconvolution is performed with Huygens (Bitplane AG). […] AP and K^+ are measured. […]

HSV = settings: cited from earlier work

For `CC(=O)NCCCCCCNC(C)=O` [HMBA, Hexamethylene bisacetamide], the “activation of HIV” value (HIV) is listed as “activate viruses”, the VSMC proliferation [1] is listed as “inhibit human vascular smooth muscle cell (VSMC) proliferation” and the “cardiac hypertrophy by morphologic analyses” value (cardiac hypertrophy; certain patients) is listed as “reduces cardiac hypertrophy”. The most prominent toxicity (cardiac hypertrophy; patients) was “thrombocytopenia, generally reversible on cessation of administration”, the action potential ([2]; rats after myocardial infarction, 1 and 3 weeks) was “normal action potential” and the cellular hypertrophy ([2]; rats, three weeks after myocardial infarction) was “no signs of cellular hypertrophy”. The “activation of HSV” value (HSV) was “activate viruses”.
